Results: patent US20250205256A1 (GH RESEARCH IRELAND LIMITED, priority 2022, published 2025)

Key:
[1] = system: Escherichia coli strain WP2 uvrA pKM101; test: Bacterial mutation test, Escherichia coli; assay type: cell-based; conditions: up to 5000 μg/plate, absence and presence of rat liver S-9
Procedure: These conditions included treatments at concentrations up to 5000 μg/plate (the maximum recommended concentration according to current regulatory guidelines), in the absence and in the presence of a rat liver metabolic activation system (S-9).

[2] = Pharmacokinetics after single inhaled dose of 5-MeO-DMT (LC-MS/MS); assay type: in vivo, human
Procedure: Blood samples were obtained at 1; 2; 4; 7; 10; 15; 20; 30; 45 min and 1; 1.5; 2; 3; 4 hours after administration.
PK parameters were generated by algebraic analysis of the concentration versus time plots for each individual. The analysis was carried out using the software Phoenix WinNonlin 6.3.

[3] = system: patients with treatment-resistant major depressive disorder (TRD); test: Phase 1/2 clinical trial of inhaled 5-MeO-DMT in TRD: BPRS items; assay type: in vivo, human; conditions: for BPRS Emotional Withdrawal score: baseline 13
Source text: Patients were assigned to different groups.
The BPRS item that is of particular relevance to negative thinking is “guilt feelings”. This item relates to over concern or remorse for past behaviour. Possible scores are: • 1—No guilt feelings. • 2—Very Mild. Concerned about having failed someone or at something but not preoccupied. Can shift thoughts to other matters easily. • 3—Mild. Concerned about having failed someone or at something with some preoccupation. Tends to voice guilt to others. • 4—Moderate. Disproportionate preoccupation with guilt, having done wrong, injured others by doing or failing to do something, but can readily turn attention to other things. • 5—Moderately Severe. Preoccupation with guilt, having failed someone or at something, can turn attention to other things, but only with great effort. Not delusional. • 6—Severe; Delusional guilt or unreasonable self-reproach very out of proportion to circumstances. Moderate preoccupation present. • 7—Extremely Severe. Delusional guilt or unreasonable self-reproach grossly out of proportion to circumstances. Subject is very preoccupied with guilt and is likely to disclose to others or act on delusions.
This trial was designed in two parts.

[4] = system: patients with treatment-resistant major depressive disorder (TRD); test: Phase 1/2 clinical trial of inhaled 5-MeO-DMT in TRD: safety and tolerability
Procedure: This trial was designed in two parts. Part A was an open-label, single-arm, single-dose Phase 1 trial with two dose levels (12 mg (n=4) and 18 mg (n=4)). […] The primary endpoint of Part B was to assess the effects on the severity of depression, as assessed by the proportion of patients in remission on day seven after dosing, defined as a MADRS total score of less than or equal to 10.

[5] = system: patient with postpartum depression (PPD); test: Clinical trial of inhaled 5-MeO-DMT in postpartum depression: safety and tolerability; assay type: in vivo, human; conditions: PPD n=1
Source text: The patient completed all planned visit days.

[6] = 12 mg n=4 sum, 3 h after dose vs baseline
[7] = 12 mg n=4 sum, Day 1 vs baseline
[8] = 12 mg n=4 sum, Day 7 vs baseline
[9] = IDR n=8 sum, 3 h after last dose vs baseline

COc1ccc2[nH]cc(CCN(C)C)c2c1 [5-MeO-DMT]
induction of mutation [1]: did not induce mutation | detectability in plasma ([2]; 3 hours after inhalation, whole dose range): no longer detectable | pharmacokinetic measurements under uptitration dosing schemes ([2]; compared with single doses): Substantially similar results were obtained | accumulation upon repeated administration ([2]; repeat within 1 to 4 hours): No accumulation is observed | BPRS Anxiety improvement [3, 6]: 14 | BPRS Blunted Affect improvement [3, 6]: 3 | BPRS Emotional Withdrawal improvement [3, 6]: 2 | BPRS Guilt Feelings improvement [3, 6]: 9 | BPRS Guilt Feelings percentage improvement [3, 6]: 50.00% | BPRS Tension improvement [3, 6]: 5 | BPRS Blunted Affect score ([3]; 12 mg n=4 sum, 3 h after dose, baseline 11): 8 | BPRS Emotional Withdrawal score ([3]; 12 mg n=4 sum, 3 h after dose): 11 | BPRS Tension score ([3]; 12 mg n=4 sum, 3 h after dose, baseline 14): 9 | BPRS Guilt Feelings score ([3]; 12 mg n=4 sum, 3 h after dose, baseline 18): 9 | BPRS Anxiety score ([3]; 12 mg n=4 sum, 3 h after dose, baseline 25): 11 | BPRS Blunted Affect score ([3]; 12 mg n=4 sum, Day 1, baseline 11): 6 | BPRS Emotional Withdrawal score ([3]; 12 mg n=4 sum, Day 1): 8 | BPRS Tension score ([3]; 12 mg n=4 sum, Day 1, baseline 14): 6 | BPRS Guilt Feelings score ([3]; 12 mg n=4 sum, Day 1, baseline 18): 5 | BPRS Anxiety score ([3]; 12 mg n=4 sum, Day 1, baseline 25): 6 | BPRS Anxiety improvement [3, 7]: 19 | BPRS Blunted Affect improvement [3, 7]: 5 | BPRS Emotional Withdrawal improvement [3, 7]: 5 | BPRS Guilt Feelings improvement [3, 7]: 13 | BPRS Tension improvement [3, 7]: 8 | BPRS Blunted Affect score ([3]; 12 mg n=4 sum, Day 7, baseline 11): 5 | BPRS Emotional Withdrawal score ([3]; 12 mg n=4 sum, Day 7): 6 | BPRS Tension score ([3]; 12 mg n=4 sum, Day 7, baseline 14): 6 | BPRS Guilt Feelings score ([3]; 12 mg n=4 sum, Day 7, baseline 18): 5 | BPRS Anxiety score ([3]; 12 mg n=4 sum, Day 7, baseline 25): 6 | BPRS Anxiety improvement [3, 8]: 19 | BPRS Blunted Affect improvement [3, 8]: 6 | BPRS Emotional Withdrawal improvement [3, 8]: 7 | BPRS Guilt Feelings improvement [3, 8]: 13 | BPRS Tension improvement [3, 8]: 8 | BPRS Anxiety improvement [3, 9]: 18 | BPRS Blunted Affect improvement [3, 9]: 4 | BPRS Emotional Withdrawal improvement [3, 9]: 5 | BPRS Guilt Feelings improvement [3, 9]: 20 | BPRS Tension improvement [3, 9]: 5 | BPRS Emotional Withdrawal score ([3]; IDR n=8 sum, 3 h after last dose): 8 | BPRS Blunted Affect score ([3]; IDR n=8 sum, 3 h after last dose, baseline 15): 11 | BPRS Tension score ([3]; IDR n=8 sum, 3 h after last dose, baseline 16): 11 | BPRS Guilt Feelings score ([3]; IDR n=8 sum, 3 h after last dose, baseline 34): 14 | BPRS Anxiety score ([3]; IDR n=8 sum, 3 h after last dose, baseline 37): 19 | BPRS Emotional Withdrawal score ([3]; IDR n=8 sum, Day 1): 8 | BPRS Blunted Affect score ([3]; IDR n=8 sum, Day 1, baseline 15): 8 | BPRS Tension score ([3]; IDR n=8 sum, Day 1, baseline 16): 11 | BPRS Guilt Feelings score ([3]; IDR n=8 sum, Day 1, baseline 34): 11 | BPRS Anxiety score ([3]; IDR n=8 sum, Day 1, baseline 37): 16 | BPRS Anxiety improvement ([3]; IDR n=8 sum, Day 1 vs baseline): 21 | BPRS Blunted Affect improvement ([3]; IDR n=8 sum, Day 1 vs baseline): 7 | BPRS Emotional Withdrawal improvement ([3]; IDR n=8 sum, Day 1 vs baseline): 5 | BPRS Guilt Feelings improvement ([3]; IDR n=8 sum, Day 1 vs baseline): 23 | BPRS Tension improvement ([3]; IDR n=8 sum, Day 1 vs baseline): 5 | BPRS Emotional Withdrawal score ([3]; IDR n=8 sum, Day 7): 8 | BPRS Blunted Affect score ([3]; IDR n=8 sum, Day 7, baseline 15): 8 | BPRS Tension score ([3]; IDR n=8 sum, Day 7, baseline 16): 10 | BPRS Guilt Feelings score ([3]; IDR n=8 sum, Day 7, baseline 34): 10 | BPRS Anxiety score ([3]; IDR n=8 sum, Day 7, baseline 37): 17 | BPRS Anxiety improvement ([3]; IDR n=8 sum, Day 7 vs baseline): 20 | BPRS Blunted Affect improvement ([3]; IDR n=8 sum, Day 7 vs baseline): 7 | BPRS Emotional Withdrawal improvement ([3]; IDR n=8 sum, Day 7 vs baseline): 5 | BPRS Guilt Feelings improvement ([3]; IDR n=8 sum, Day 7 vs baseline): 24 | BPRS Tension improvement ([3]; IDR n=8 sum, Day 7 vs baseline): 6 | changes in safety laboratory analyses, vital signs, psychiatric safety assessments or measures of cognitive function ([4]; Part A and Part B): No clinically significant changes | severity and outcome of ADRs ([4]; Part A, 12 mg and 18 mg groups): mild and resolved spontaneously | patients experiencing at least one ADR ([4]; Part A, 12 mg single dose, n=4): 3 of 4 | patients experiencing at least one ADR ([4]; Part A, 18 mg single dose, n=4): 3 of 4 | SAEs ([4]; Part B, IDR): No SAEs were reported | outcome of ADRs ([4]; Part B, IDR): All ADRs resolved spontaneously | patients experiencing at least one ADR ([4]; Part B, IDR, 7 of 8 patients): 87.5% | reported adverse events (cramping left abdominal pain and headache, Day 0) [5]: mild, short-lasting and resolved spontaneously | tolerability of inhalation procedure [5]: well tolerated with no inhalation-related adverse events | ECG, safety laboratory analyses, CADSS ([5]; ECG 3 hours, laboratory 7 days, CADSS 3 hours, 1 day and 7 days): unremarkable | changes in vital parameters ([5]; shortly after administration): temporary, clinically non-relevant increase in heart rate and blood pressure
